Results from patent US6627732B1, “Glutathione derivatives and their dosage forms” (Teijin Limited, priority 1998, dated 2003).
Counter-ions that a name gives are not always drawn. Starred links: 1 amine or outer side, 2 acyl side, 3 side chain; linkers in the order of their positions; H or OH if unused. Non-standard residues stand in square brackets, D forms with d. Residues, ends and D or L forms follow the SMILES beside them. *: point of attachment. γGlu = O=C(O)[C@H](CCC(=O)[*:2])N[*:1]; dPhg = N[C@@H](C(=O)O)c1ccccc1; Bn = c1ccc(C*)cc1

Test system: HL-60 cells
Assay: HL-60 cell differentiation induction, NBT reducing activity, DMSO as solvent (Example 21)
Assay type: cell-based, human
Source text: In a manner similar to that in Example 20, the in vitro activity of the glutathione derivatives of Examples 4, 5, and 8, and Comparative Example 3 were compared.
(1) The differences from Example 20 were: First, since the glutathione derivatives of Examples and Comparative Examples used dimethyl sulfoxide (DMSO) as the solvent because of the solubility of the compounds, the system contained 0.1-0.3 (v/v)% DMSO instead of ethanol. […] This caused slight differences in the sensitivity in the test results of the glutathione derivative of Example 4. Furthermore, in Example 21, the differentiation induction on HL-60 cells into granulocytic cells in the coexistence of 9-cis-RA was only evaluated.

[1] = compound 3 × 10^−6 M in DMSO, Solvent control (EtOH - 0.1%)
[2] = compound 3 × 10^−6 M in DMSO, with 9-cis-RA (5 × 10^−9 M)
[3] = compound 3 × 10^−7 M in DMSO, Solvent control (EtOH - 0.1%)
[4] = compound 3 × 10^−7 M in DMSO, with 9-cis-RA (5 × 10^−9 M)
[5] = compound 3 × 10^−8 M in DMSO, Solvent control (EtOH - 0.1%)
[6] = compound 3 × 10^−8 M in DMSO, with 9-cis-RA (5 × 10^−9 M)
[7] = compound 10^−6 M in DMSO, Solvent control (EtOH - 0.1%)
[8] = compound 10^−6 M in DMSO, with 9-cis-RA (5 × 10^−9 M)
[9] = compound 10^−7 M in DMSO, Solvent control (EtOH - 0.1%)
[10] = compound 10^−7 M in DMSO, with 9-cis-RA (5 × 10^−9 M)
[11] = compound 10^−8 M in DMSO, Solvent control (EtOH - 0.1%)
[12] = compound 10^−8 M in DMSO, with 9-cis-RA (5 × 10^−9 M)

Compound | Ratio of NBT reduction activity-positive cells [1] | Ratio of NBT reduction activity-positive cells [2] | Ratio of NBT reduction activity-positive cells [3] | Ratio of NBT reduction activity-positive cells [4] | Ratio of NBT reduction activity-positive cells [5] | Ratio of NBT reduction activity-positive cells [6] | Ratio of NBT reduction activity-positive cells [7] | Ratio of NBT reduction activity-positive cells [8] | Ratio of NBT reduction activity-positive cells [9] | Ratio of NBT reduction activity-positive cells [10] | Ratio of NBT reduction activity-positive cells [11] | Ratio of NBT reduction activity-positive cells [12]
N[C@@H](CCC(=O)N[C@@H](CSCc1ccccc1)C(=O)N[C@@H](C(=O)O)c1ccccc1)C(=O)O [Comparative Example 3, Glu(Cys(Bzl)-D-Phg-OH)-OH Hydrochloride, reference compound] (γGlu-Cys(Bn)-[dPhg]-OH) | 0.6% | 17.1% | 0.6% | 3.8% | 0.5% | 2.8% | 0.3% | 6.1% | 0.3% | 3.5% | 0.7% | 3.1%
CCCCCCCCCCCCCCCCOC(=O)[C@H](CCC(=O)N[C@@H](CSCc1ccccc1)C(=O)N[C@@H](C(=O)OCC)c1ccccc1)NC(C)=O [Example 5, Ac-Glu(Cys(Bzl)-D-Phg-OEt)-O(Hexadecyl)] | 0.2% | 11.2% | 0.7% | 4.3% | 0.7% | 2.1% | 0.3% | 6.5% | 0.9% | 3.2% | 0.3% | 2.5%
CCCCCCCCCCCCCCCCOC(=O)[C@H](NC(=O)[C@H](CSCc1ccccc1)NC(=O)CC[C@H](N)C(=O)OCC)c1ccccc1.Cl [Example 8, Glu(Cys(Bzl)-D-Phg-O(Hexadecyl))-OEt Hydrochloride] | 0.7% | 16.9% | 0.9% | 4.7% | 0.4% | 3.2% | 0.8% | 8.8% | 0.8% | 4.2% | 0.5% | 2.9%
